In brackets after ≈: the same amount, converted by molar mass. Where two headings read alike, the source gives them in different places.
Legend:
[1] = test system: Gram-negative and Gram-positive organisms (clinical isolates); experiment: Broth microdilution MIC against clinical isolates (CLSI M7-A8), Table 9; assay type: cell-based
S. maltophila = experiment: Broth microdilution MIC by tetracycline resistance phenotype (Table 10); assay type: cell-based; design: unit not given beside the values
[2] = test system: Viridans group streptococci; experiment: as above; assay type: cell-based; design: unit not given beside the values
[3] = test system: Legionella pneumophila, 70 isolates, serogroups 1-6; experiment: microbe, parasite or virus in culture; assay type: cell-based
E. coli DH10B EC971 LacZ = experiment: MIC, E. coli DH10B recombinantly expressing control gene
[4] = test system: evaluated pathogens by tetracycline phenotype; experiment: Broth microdilution MIC by tetracycline phenotype (Table 14)
[5] = test system: E. coli DH10B EC1153 Tet(X); experiment: MIC, E. coli DH10B recombinantly expressing tetracycline-resistance gene; details: arabinose-induced, ampicillin in medium
E. coli DH10B EC969 TetM = experiment: as above; details: arabinose-induced, ampicillin in medium
E. coli DH10B EC970 TetK = experiment: as above; details: arabinose-induced, ampicillin in medium
[6] = test system: E. coli DH10B EC1082 TetA; experiment: as above; details: arabinose-induced, ampicillin in medium
[7] = test system: E. coli DH10B EC1083 TetB; experiment: as above; details: arabinose-induced, ampicillin in medium
[8] = test system: S. pneumoniae strain SP514; experiment: Immunocompetent CD-1 murine lung infection model; assay type: in vivo; details: immunocompetent CD-1 mice, SP514, orally dosed 30 mg/kg at 5, 24 and 36 hours post-infection (FIG. 2)
Procedure: Compound 102 was tested in an immunocompetent CD-1 murine model of lung infection challenged with S. pneumoniae strain SP514.

[9] = Streptococcus pneumoniae, S. pneumoniae, TET NS, N=46
[10] = Staphylococcus aureus, Staphylococcus aureus (MRSA PVL+), n=30, read-out: MIC50
[11] = Staphylococcus aureus, Staphylococcus aureus (MRSA PVL+), n=30, read-out: MIC90
[12] = Staphylococcus aureus, Staphylococcus aureus MRSA (includes MRSA PVL+ group), n=105, read-out: MIC50
[13] = Staphylococcus aureus, Staphylococcus aureus MRSA (includes MRSA PVL+ group), n=105, read-out: MIC90
[14] = Streptococcus intermedius, n=30
[15] = Klebsiella aerogenes, Enterobacter aerogenes, n=30
[16] = Klebsiella pneumoniae, Klebsiella pneumonia, n=27
[17] = Stenotrophomonas maltophilia, n=29
[18] = Enterococcus faecium, E. faecium, TET NS, N=40
[19] = Enterococcus faecium, E. faecium, TET S, N=60
[20] = Streptococcus agalactiae, S. agalactiae, TET NS, N=39
[21] = Streptococcus agalactiae, S. agalactiae, TET S, N=11
[22] = Streptococcus pneumoniae, S. pneumoniae, TET S, N=54
[23] = Streptococcus pyogenes, S. pyogenes, TET S, N=44

CN(C)[C@@H]1C(O)=C(C(N)=O)C(=O)[C@@]2(O)C(O)=C3C(=O)c4c(O)cccc4[C@@](C)(O)[C@H]3C[C@@H]12 [Tetracycline, tetracycline]
MIC50 [1]: 0.25 µg/mL (≈ 0.563 µM)
MIC90 [1]: > 8 µg/mL
MIC50 ([1]; Acinetobacter lwoffii): 0.5 µg/mL (≈ 1.13 µM)
MIC90 ([1]; Acinetobacter lwoffii): 4 µg/mL (≈ 9 µM)
MIC50 ([1]; Enterobacter cloacae): 4 µg/mL (≈ 9 µM)
MIC90 ([1]; Enterobacter cloacae): > 8 µg/mL
MIC50 ([1]; Escherichia coli): > 8 µg/mL
MIC90 ([1]; Escherichia coli): > 8 µg/mL
MIC50 ([1]; Klebsiella aerogenes): 1 µg/mL (≈ 2.25 µM)
MIC90 ([1]; Klebsiella aerogenes): 2 µg/mL (≈ 4.5 µM)
MIC50 ([1]; Klebsiella pneumoniae): 8 µg/mL (≈ 18 µM)
MIC90 ([1]; Klebsiella pneumoniae): > 8 µg/mL
MIC50 ([1]; Morganella morganii): 2 µg/mL (≈ 4.5 µM)
MIC90 ([1]; Morganella morganii): > 8 µg/mL
MIC50 ([1]; Proteus vulgaris): 8 µg/mL (≈ 18 µM)
MIC90 ([1]; Proteus vulgaris): > 8 µg/mL
MIC50 ([1]; Serratia marcescens): > 8 µg/mL
MIC90 ([1]; Serratia marcescens): > 8 µg/mL
MIC50 ([1]; Staphylococcus aureus): 0.25 µg/mL (≈ 0.563 µM)
MIC50 ([1]; Stenotrophomonas maltophilia): 8 µg/mL (≈ 18 µM)
MIC90 ([1]; Stenotrophomonas maltophilia): > 8 µg/mL
MIC50 ([1]; Streptococcus anginosus): 0.12 µg/mL (≈ 0.27 µM)
MIC90 ([1]; Streptococcus anginosus): > 4 µg/mL
MIC50 ([1]; Streptococcus intermedius): 0.25 µg/mL (≈ 0.563 µM)
MIC90 ([1]; Streptococcus intermedius): > 4 µg/mL
MIC50 ([1]; Streptococcus mitis): 0.5 µg/mL (≈ 1.13 µM)
MIC90 ([1]; Streptococcus mitis): > 4 µg/mL
MIC50 (S. maltophila; TET NS, n=19): >8
MIC90 (S. maltophila; TET NS, n=19): >8
MIC50 (S. maltophila; TET S, n=10): 4
MIC90 (S. maltophila; TET S, n=10): 4
MIC50 ([2]; TET NS, n=32): >4
MIC90 ([2]; TET NS, n=32): >4
MIC50 ([2]; TET S, n=65): 0.25
MIC90 ([2]; TET S, n=65): 0.5
MIC50 [3]: 4 µg/mL (≈ 9 µM)
MIC90 [3]: 8 µg/mL (≈ 18 µM)
MIC EC971 LacZ (E. coli DH10B EC971 LacZ): 2
MIC90 ([4]; F. faecalis, TET S, N=30): 500 µg/mL (≈ 1130 µM)
MIC50 [4, 9]: 16000 µg/mL (≈ 36000 µM)
MIC EC1153 Tet(X) [5]: >32
MIC EC969 TetM (E. coli DH10B EC969 TetM): 64
MIC EC970 TetK (E. coli DH10B EC970 TetK): 64
MIC EC1082 TetA [6]: >128
MIC EC1083 TetB [7]: >128

CC(=O)NC[C@H]1CN(c2ccc(N3CCOCC3)c(F)c2)C(=O)O1 [linezolid, Linezolid]
log10 reduction in CFU versus the 48 hour untreated control [8]: 3.56±0.63 log10
MIC50 [1, 10]: 1 µg/mL (≈ 2.96 µM)
MIC90 [1, 11]: 2 µg/mL (≈ 5.93 µM)
MIC50 [1, 12]: 2 µg/mL (≈ 5.93 µM)
MIC90 [1, 13]: 4 µg/mL (≈ 11.9 µM)
MIC50 ([1]; Streptococcus anginosus, n=20): 0.5 µg/mL (≈ 1.48 µM)
MIC90 ([1]; Streptococcus anginosus, n=20): 1 µg/mL (≈ 2.96 µM)
MIC50 [1, 14]: 1 µg/mL (≈ 2.96 µM)
MIC90 [1, 14]: 1 µg/mL (≈ 2.96 µM)
MIC50 ([1]; Streptococcus mitis, n=29): 1 µg/mL (≈ 2.96 µM)
MIC90 ([1]; Streptococcus mitis, n=29): 1 µg/mL (≈ 2.96 µM)
MIC50 ([1]; Streptococcus sanguis, n=18, read-out: MIC50): 0.5 µg/mL (≈ 1.48 µM)
MIC90 ([1]; Streptococcus sanguis, n=18, read-out: MIC90): 1 µg/mL (≈ 2.96 µM)

CN(C)c1cc(NC(=O)CNC(C)(C)C)c(O)c2c1C[C@H]1C[C@H]3[C@H](N(C)C)C(O)=C(C(N)=O)C(=O)[C@@]3(O)C(O)=C1C2=O [Tigecycline, tigecycline]
MIC50 ([1]; Acinetobacter lwoffii, n=29): 0.12 µg/mL (≈ 0.205 µM)
MIC90 ([1]; Acinetobacter lwoffii, n=29): 0.5 µg/mL (≈ 0.854 µM)
MIC50 ([1]; Enterobacter cloacae, n=29): 1 µg/mL (≈ 1.71 µM)
MIC90 ([1]; Enterobacter cloacae, n=29): 4 µg/mL (≈ 6.83 µM)
MIC50 ([1]; Escherichia coli, n=40): 0.5 µg/mL (≈ 0.854 µM)
MIC90 ([1]; Escherichia coli, n=40): 2 µg/mL (≈ 3.41 µM)
MIC50 ([1]; Kiebsielia oxytoca, n=30): 0.5 µg/mL (≈ 0.854 µM)
MIC90 ([1]; Kiebsielia oxytoca, n=30): 2 µg/mL (≈ 3.41 µM)
MIC50 [1, 15]: 0.5 µg/mL (≈ 0.854 µM)
MIC90 [1, 15]: 0.5 µg/mL (≈ 0.854 µM)
MIC50 [1, 16]: 2 µg/mL (≈ 3.41 µM)
MIC90 [1, 16]: 4 µg/mL (≈ 6.83 µM)
MIC50 ([1]; Morganella morganii, n=30): 2 µg/mL (≈ 3.41 µM)
MIC90 ([1]; Morganella morganii, n=30): 4 µg/mL (≈ 6.83 µM)
MIC50 ([1]; Proteus vulgaris, n=29): 2 µg/mL (≈ 3.41 µM)
MIC90 ([1]; Proteus vulgaris, n=29): 4 µg/mL (≈ 6.83 µM)
MIC50 ([1]; Salmonella species, n=30): 0.25 µg/mL (≈ 0.427 µM)
MIC90 ([1]; Salmonella species, n=30): 0.5 µg/mL (≈ 0.854 µM)
MIC50 ([1]; Serratia marcescens, n=30): 1 µg/mL (≈ 1.71 µM)
MIC90 ([1]; Serratia marcescens, n=30): 2 µg/mL (≈ 3.41 µM)
MIC50 [1, 10]: 0.12 µg/mL (≈ 0.205 µM)
MIC90 [1, 11]: 0.12 µg/mL (≈ 0.205 µM)
MIC50 [1, 12]: 0.13 µg/mL (≈ 0.222 µM)
MIC90 [1, 13]: 0.25 µg/mL (≈ 0.427 µM)
MIC50 [1, 17]: 0.5 µg/mL (≈ 0.854 µM)
MIC90 [1, 17]: 2 µg/mL (≈ 3.41 µM)
MIC50 ([1]; Streptococcus anginosus, n=20): 0.03 µg/mL (≈ 0.0512 µM)
MIC90 ([1]; Streptococcus anginosus, n=20): 0.06 µg/mL (≈ 0.102 µM)
MIC50 [1, 14]: 0.03 µg/mL (≈ 0.0512 µM)
MIC90 [1, 14]: 0.12 µg/mL (≈ 0.205 µM)
MIC50 ([1]; Streptococcus mitis, n=29): 0.03 µg/mL (≈ 0.0512 µM)
MIC90 ([1]; Streptococcus mitis, n=29): 0.12 µg/mL (≈ 0.205 µM)
MIC50 ([1]; Streptococcus sanguis, n=18): 0.03 µg/mL (≈ 0.0512 µM)
MIC90 ([1]; Streptococcus sanguis, n=18): 0.06 µg/mL (≈ 0.102 µM)
MIC50 ([2]; TET NS, n=32): 0.03
MIC90 ([2]; TET NS, n=32): 0.12
MIC50 ([2]; TET S, n=65): 0.03
MIC90 ([2]; TET S, n=65): 0.06
MIC EC971 LacZ (E. coli DH10B EC971 LacZ; E. coli DH10B, arabinose-induced, ampicillin in medium): 0.0625
MIC50 [4, 18]: 0.06 µg/mL (≈ 0.102 µM)
MIC90 [4, 18]: 0.12 µg/mL (≈ 0.205 µM)
MIC50 [4, 19]: 0.06 µg/mL (≈ 0.102 µM)
MIC90 [4, 19]: 0.06 µg/mL (≈ 0.102 µM)
MIC50 ([4]; F. faecalis, TET NS, N=71): 0.12 µg/mL (≈ 0.205 µM)
MIC90 ([4]; F. faecalis, TET NS, N=71): 0.12 µg/mL (≈ 0.205 µM)
MIC50 ([4]; F. faecalis, TET S, N=30): 0.06 µg/mL (≈ 0.102 µM)
MIC90 ([4]; F. faecalis, TET S, N=30): 0.12 µg/mL (≈ 0.205 µM)
MIC50 [4, 20]: 0.12 µg/mL (≈ 0.205 µM)
MIC90 [4, 20]: 0.12 µg/mL (≈ 0.205 µM)
MIC50 [4, 21]: 0.12 µg/mL (≈ 0.205 µM)
MIC90 [4, 21]: 0.12 µg/mL (≈ 0.205 µM)
MIC50 [4, 9]: 0.06 µg/mL (≈ 0.102 µM)
MIC90 [4, 9]: 0.06 µg/mL (≈ 0.102 µM)
MIC50 [4, 22]: 0.06 µg/mL (≈ 0.102 µM)
MIC90 [4, 22]: 0.06 µg/mL (≈ 0.102 µM)
MIC50 ([4]; Streptococcus pyogenes, S. pyogenes, TET NS, N=6): 0.06 µg/mL (≈ 0.102 µM)
MIC50 [4, 23]: 0.06 µg/mL (≈ 0.102 µM)
MIC90 [4, 23]: 0.06 µg/mL (≈ 0.102 µM)
MIC EC1153 Tet(X) [5]: 2
MIC EC969 TetM (E. coli DH10B EC969 TetM): 0.125
MIC EC970 TetK (E. coli DH10B EC970 TetK): 0.0625
MIC EC1082 TetA [6]: 1
MIC EC1083 TetB [7]: 0.0625
